Measured values from PubChem BioAssay AID1259408 (Genetic Toxicology Data Bank (GENE-TOX), 2018).
Active and inactive are the calls of the source. No rule for the calls is given here.

Tested on: GENE-TOX genotoxicity assays, various organisms and cells
Experiment: GENE-TOX mutagenicity studies
[1] = Species/Cell Type: Salmonella typhimurium (one or more of the five standard strains: TA98, TA100, TA1535, TA1537, and TA1538), Assay Type: Histidine reverse gene mutation, Ames assay, Assay Code: SAL+*, Activation: With metabolic activation, Evaluation Type: Evaluation A (Pre-1980)
[2] = Species/Cell Type: Drosophila melanogaster, Assay Type: Sex-linked recessive lethal gene mutation, Assay Code: SRL+, Evaluation Type: Evaluation A (Pre-1980)
[3] = Species/Cell Type: Salmonella typhimurium (one or more of the five standard strains: TA98, TA100, TA1535, TA1537, and TA1538), Assay Type: Histidine reverse gene mutation, Ames assay, Assay Code: SAL+, Evaluation Type: Evaluation A (Pre-1980)
[4] = Species/Cell Type: Escherichia coli polA (W3119 vs P3478), Assay Type: Rec-assay, DNA effects (bacterial DNA repair), Assay Code: RE1T, Evaluation Type: Evaluation A (Pre-1980)
[5] = Species/Cell Type: Drosophila melanogaster, Assay Type: Sex-linked recessive lethal gene mutation, Assay Code: SRLT, Evaluation Type: Evaluation A (Pre-1980)
[6] = Species/Cell Type: Nonhuman, Assay Type: Sister-chromatid exchange (SCE) in vivo, Assay Code: SC3+D, Dose Response: With dose response, Evaluation Type: Evaluation B (Post-1980)
[7] = Species/Cell Type: Escherichia coli WP2 UVRA, Assay Type: Tryptophan reverse gene mutation, Assay Code: WPU-, Evaluation Type: Evaluation A (Pre-1980)

For COc1cc2c(c3oc(=O)c4c(c13)[C@@H](O)CC4=O)[C@@H]1C=CO[C@@H]1O2, the mutagenic call [1] was “active; positive”.

In the case of CCOC(=O)N(CC)N=O, the mutagenic call (Species/Cell Type: Arabidopsis species, Assay Type: Gene mutation, Assay Code: ARM+D, Dose Response: With dose response, Evaluation Type: Evaluation A (Pre-1980)) is reported as “active; positive”, the mutagenic call (Species/Cell Type: Drosophila melanogaster, Assay Type: Aneuploidy, partial sex chromosome loss, chromosome aberrations, Assay Code: DAP+MDAC+M, Dose Response: With dose response, Evaluation Type: Evaluation A (Pre-1980)) is reported as “active; positive” and the mutagenic call (Species/Cell Type: Drosophila melanogaster, Assay Type: Aneuploidy, sex chromosome gain, chromosome aberrations, Assay Code: DAGT, Evaluation Type: Evaluation A (Pre-1980)) is reported as “no conclusion”. The mutagenic call [2] was “active; positive”, the mutagenic call (Species/Cell Type: Escherichia coli polA (W3119 vs P3478), Assay Type: Rec-assay, DNA effects (bacterial DNA repair), Assay Code: RE1+, Evaluation Type: Evaluation A (Pre-1980)) was “active; positive” and the mutagenic call (Species/Cell Type: Hordeum vulgare (barley), Assay Type: Gene mutation, Assay Code: HOM+D, Dose Response: With dose response, Evaluation Type: Evaluation A (Pre-1980)) was “active; positive”. The mutagenic call (Species/Cell Type: Neurospora crassa, Assay Type: Reverse gene mutation, Assay Code: NER+, Evaluation Type: Evaluation A (Pre-1980)) was “active; positive”, the mutagenic call (Species/Cell Type: Saccharomyces cerevisiae, Assay Type: Mitotic recombination or gene conversion, Assay Code: YEC+, Evaluation Type: Evaluation A (Pre-1980)) was “active; positive” and the mutagenic call [3] was “active; positive”. The mutagenic call (Species/Cell Type: Schizosaccharomyces pombe, Assay Type: Reverse gene mutation, Assay Code: YEZ+, Evaluation Type: Evaluation A (Pre-1980)) was “active; positive”.

In the case of CCCCI, the mutagenic call [4] is reported as “no conclusion”.

With [Mg+2] the mutagenic call (Species/Cell Type: Bacillus subtilis (H17 vs M45), Assay Type: Rec-assay, spot test, DNA effects (bacterial DNA repair), Assay Code: REW-, Evaluation Type: Evaluation A (Pre-1980)) was “inactive; negative”.

With C=CC#N the mutagenic call [5] was “no conclusion”, the mutagenic call (Species/Cell Type: Escherichia coli WP2, Assay Type: Tryptophan reverse gene mutation, Assay Code: WP2+D, Dose Response: With dose response, Evaluation Type: Evaluation A (Pre-1980)) was “active; positive” and the mutagenic call (Species/Cell Type: Escherichia coli WP2 UVRA, Assay Type: Tryptophan reverse gene mutation, Assay Code: WPU+, Evaluation Type: Evaluation A (Pre-1980)) was “active; positive”. For the same compound, the mutagenic call (Species/Cell Type: Mammalian polychromatic erythrocytes, Assay Type: Micronucleus test, chromosome aberrations, Assay Code: MNT-, Evaluation Type: Evaluation B (Post-1980)) was “inactive; negative”, the call (Species/Cell Type: Nonhuman, Assay Type: In vivo carcinogenicity studies, Assay Code: CCG+, Evaluation Type: Evaluation A (Pre-1980)) was “active; positive” and the mutagenic call (Species/Cell Type: Nonhuman, Assay Type: Sister-chromatid exchange (SCE) in vitro, Assay Code: SC2+D, Dose Response: With dose response, Evaluation Type: Evaluation B (Post-1980)) was “active; positive”. The mutagenic call [6] was “active; positive”, the mutagenic call [1] was “active; positive” and the mutagenic call (Species/Cell Type: Syrian hamster embryo (SA7/SHE) cells, Assay Type: Cell transformation, viral enhanced, Assay Code: CT7+, Evaluation Type: Evaluation A (Pre-1980)) was “active; positive”. For the same compound, the mutagenic call (Species/Cell Type: Syrian hamster embryo (SHE) cells, Assay Type: Cell transformation, focus assay, Assay Code: CTF+, Evaluation Type: Evaluation A (Pre-1980)) was “active; positive”.

Clc1cccc(-c2ccc(Cl)c(Cl)c2Cl)c1Cl was tested, and the mutagenic call (Species/Cell Type: Mammalian polychromatic erythrocytes, Assay Type: Micronucleus test, chromosome aberrations, Assay Code: MNTT, Evaluation Type: Evaluation A (Pre-1980)) was “no conclusion”, the mutagenic call (Species/Cell Type: Mouse, Sex: Male, Assay Type: Sperm morphology, Assay Code: SPI-, Evaluation Type: Evaluation A (Pre-1980)) was “inactive; negative” and the mutagenic call (Species/Cell Type: Rodents, Sex: Male, Assay Type: Dominant lethal test, Assay Code: DLT-, Evaluation Type: Evaluation A (Pre-1980)) was “inactive; negative”. The mutagenic call (Species/Cell Type: Syrian hamster embryo (SHE) cells, Assay Type: Cell transformation, clonal assay, Assay Code: CTC-, Evaluation Type: Evaluation A (Pre-1980)) was “inactive; negative”.

With O=C(O)c1ccc([N+](=O)[O-])o1 the mutagenic call (Species/Cell Type: Bacillus subtilis (H17 vs M45T), Assay Type: Rec-assay, spot test, DNA effects (bacterial DNA repair), Assay Code: REX-, Evaluation Type: Evaluation A (Pre-1980)) was “inactive; negative”, the mutagenic call (Species/Cell Type: Escherichia coli WP2, Assay Type: Tryptophan reverse gene mutation, Assay Code: WP2-, Evaluation Type: Evaluation A (Pre-1980)) was “inactive; negative” and the mutagenic call [7] was “inactive; negative”. The mutagenic call [3] was “active; positive”.

In the case of C[C@]1(O)CC[C@H]2[C@@H]3CCC4=CC(=O)CC[C@]4(C)[C@@]3(F)[C@@H](O)C[C@@]21C, the mutagenic call (Species/Cell Type: Human, Sex: Male, Assay Type: Sperm morphology, Assay Code: SPHT, Evaluation Type: Evaluation A (Pre-1980)) is reported as “no conclusion”.

With Cc1c2ccncc2c(C)c2c1[nH]c1ccc(O)cc12 the mutagenic call (Species/Cell Type: Chinese hamster ovary (CHO) cells, Assay Type: Forward gene mutation at the HPRT locus, Assay Code: CHOT, Evaluation Type: Evaluation B (Post-1980)) was “no conclusion”.

In the case of C1=Cc2c3c1cccc3cc1ccc3ccccc3c21, the mutagenic call [6] is reported as “active; positive”.

With COc1cccc(C2CO2)c1 (stereo unspecified) the mutagenic call [7] was “inactive; negative”.

In the case of CC1CCCCN1N=O (stereo unspecified), the mutagenic call (Species/Cell Type: Drosophila melanogaster, Assay Type: Aneuploidy, partial sex chromosome loss, chromosome aberrations, Assay Code: DAPT, Evaluation Type: Evaluation A (Pre-1980)) is reported as “no conclusion”, the mutagenic call (Species/Cell Type: Drosophila melanogaster, Assay Type: Aneuploidy, whole sex chromosome loss, chromosome aberrations, Assay Code: DAC-M, Evaluation Type: Evaluation A (Pre-1980)) is reported as “inactive; negative” and the mutagenic call [5] is reported as “no conclusion”. For the same compound, the mutagenic call (Species/Cell Type: Saccharomyces cerevisiae, Assay Type: Forward gene mutation, Assay Code: YEF+*, Activation: With metabolic activation, Evaluation Type: Evaluation A (Pre-1980)) was “active; positive”, the mutagenic call (Species/Cell Type: Saccharomyces cerevisiae, Assay Type: Reverse gene mutation, Assay Code: YER+*, Activation: With metabolic activation, Evaluation Type: Evaluation A (Pre-1980)) was “active; positive” and the mutagenic call [1] was “active; positive”.

For Cc1cc(O)c2c(c1)C(=O)c1cc(OC3O[C@@H](C)[C@H](O)[C@@H](O)[C@H]3O)cc(O)c1C2=O (stereo partly specified), the mutagenic call [1] was “active; positive”.

In the case of Nc1cccc2c1-c1ccccc1C2, the mutagenic call (Species/Cell Type: Fischer rat embryo (RLV/1706) cells, Assay Type: Cell transformation, viral enhanced, Assay Code: CTR-, Evaluation Type: Evaluation A (Pre-1980)) is reported as “inactive; negative” and the mutagenic call (Species/Cell Type: Mouse embryo (AKR/ME) cells, Assay Type: Cell transformation, Assay Code: CTK-, Evaluation Type: Evaluation A (Pre-1980)) is reported as “inactive; negative”.

O[C@H]1[C@H](O)[C@@H](O)c2c(cc3ccc4cccc5ccc2c3c45)[C@@H]1O was tested, and the mutagenic call (Species/Cell Type: Chinese hamster lung (V79) cells, Assay Type: Forward gene mutation at the HPRT or ouabain locus, Assay Code: V79-*, Activation: With metabolic activation, Evaluation Type: Evaluation A (Pre-1980)) was “inactive; negative”.

In the case of CC(=O)c1ccc(S(=O)(=O)NC(=O)NC2CCCCC2)cc1, the mutagenic call (Species/Cell Type: Nonhuman, Assay Type: Sister-chromatid exchange (SCE) in vivo, Assay Code: SC3T, Evaluation Type: Evaluation B (Post-1980)) is reported as “no conclusion”.

O=C(CO)c1coc(=O)c2c(O)cccc12 was tested, and the mutagenic call (Species/Cell Type: Bacillus subtilis (H17 vs M45), Assay Type: Rec-assay, spot test, DNA effects (bacterial DNA repair), Assay Code: REWT, Evaluation Type: Evaluation A (Pre-1980)) was “no conclusion”.

In the case of Cc1c2c(c(C)c3c1ccc1ccccc13)[C@@H]1OC1[C@@H](O)[C@@H]2O (stereo partly specified), the mutagenic call (Species/Cell Type: Chinese hamster lung (V79) cells, Assay Type: Forward gene mutation at the HPRT or ouabain locus, Assay Code: V79+, Evaluation Type: Evaluation A (Pre-1980)) is reported as “active; positive”.

For CCc1cccc(CC)c1N(COC)C(=O)CCl, the mutagenic call (Species/Cell Type: Saccharomyces cerevisiae, Assay Type: Mitotic recombination or gene conversion, Assay Code: YEC+*, Activation: With metabolic activation, Evaluation Type: Evaluation A (Pre-1980)) was “active; positive”.

With CN(CCCCC(=O)OC[C@H](N)C(=O)O)N=O the mutagenic call (Species/Cell Type: Escherichia coli polA (W3110 vs P3478), Assay Type: Rec-assay, DNA effects (bacterial DNA repair), Assay Code: RE2T, Evaluation Type: Evaluation A (Pre-1980)) was “no conclusion” and the mutagenic call [4] was “no conclusion”.

In the case of Cc1ccc2ccc3c4ccccc4cc4ccc1c2c43, the mutagenic call [2] is reported as “active; positive”.

With NC(=O)c1cccnc1 the mutagenic call (Species/Cell Type: Human, Assay Type: Sister-chromatid exchange (SCE) in vitro, Assay Code: SC1+, Evaluation Type: Evaluation B (Post-1980)) was “active; positive” and the mutagenic call (Species/Cell Type: Nonhuman, Assay Type: Sister-chromatid exchange (SCE) in vitro, Assay Code: SC2+, Evaluation Type: Evaluation B (Post-1980)) was “active; positive”.

With CN(CCCCOC[C@H](N)C(=O)O)N=O the mutagenic call (Species/Cell Type: Escherichia coli polA (W3110 vs P3478), Assay Type: Rec-assay, DNA effects (bacterial DNA repair), Assay Code: RE2-, Evaluation Type: Evaluation A (Pre-1980)) was “inactive; negative” and the mutagenic call [4] was “no conclusion”.
